# Laboratory results: the supplement of paper PMC11061612
# Experiments:
# Assay in all cases: Bliss excess, mean over the matrix (fraction); higher = more synergy
# [1] = system: ALL-PO (B-Lymphoblastic Leukemia)
# Procedure, shortened: (§1)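 Bliss excess equals the observed combination effect minus the expected value EA + EB − EA·EB, where EA and EB are the effects of each agent alone. Combination Emax is the second-highest inhibition within the matrix. Inhibition was scaled from CellTiter-Glo 2.0 luminescence, with 0 set by vehicle wells and 1 by blank wells, after 72 hours of two-drug dosing of cells plated in 1536-well plates.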
# [2] = system: BFTC-909 (Kidney Carcinoma)
# Procedure, shortened: as §1
# [3] = system: CAL-33 (Oral Cavity Carcinoma)
# Procedure, shortened: as §1
# [4] = system: ESS-1 (Other Solid Carcinomas)
# Procedure, shortened: as §1
# [5] = system: EW-11 (Ewing's Sarcoma)
# Procedure, shortened: as §1
# [6] = system: FTC-133 (Thyroid Gland Carcinoma)
# Procedure, shortened: as §1
# [7] = system: GAMG (Glioblastoma)
# Procedure, shortened: as §1
# [8] = system: HH (T-Cell Non-Hodgkin's Lymphoma)
# Procedure, shortened: as §1
# [9] = system: HuCCT1 (Biliary Tract Carcinoma)
# Procedure, shortened: as §1
# [10] = system: L-428 (Hodgkin's Lymphoma)
# Procedure, shortened: as §1
# [11] = system: LNZTA3WT4 (Low Grade Glioma)
# Procedure, shortened: as §1
# [12] = system: LOXIMVI (Melanoma)
# Procedure, shortened: as §1
# [13] = system: MHH-CALL-2 (B-Lymphoblastic Leukemia)
# Procedure, shortened: as §1
# [14] = system: NCI-H2052 (Mesothelioma)
# Procedure, shortened: as §1
# [15] = system: NCI-H209 (Small Cell Lung Carcinoma)
# Procedure, shortened: as §1
# [16] = system: NUGC-4 (Gastric Carcinoma)
# Procedure, shortened: as §1
# [17] = system: OV-56 (Ovarian Carcinoma)
# Procedure, shortened: as §1
# [18] = system: OVCAR-5 (Ovarian Carcinoma)
# Procedure, shortened: as §1
# [19] = system: SW1710 (Bladder Carcinoma)
# Procedure, shortened: as §1
# [20] = system: YAPC (Pancreatic Carcinoma)
# Procedure, shortened: as §1
SMILES,Bliss excess [1],Bliss excess [2],Bliss excess [3],Bliss excess [4],Bliss excess [5],Bliss excess [6],Bliss excess [7],Bliss excess [8],Bliss excess [9],Bliss excess [10],Bliss excess [11],Bliss excess [12],Bliss excess [13],Bliss excess [14],Bliss excess [15],Bliss excess [16],Bliss excess [17],Bliss excess [18],Bliss excess [19],Bliss excess [20]
"NC1(C(=O)N[C@@H](CCO)c2ccc(Cl)cc2)CCN(c2ncnc3[nH]ccc23)CC1 [Capivasertib] + Cn1cnc2c(F)c(Nc3ccc(Br)cc3Cl)c(C(=O)NOCCO)cc21 [Selumetinib] (first compound max 10 µM, 7x7, partner max 10 µM)",0.117,0.0531,0.0926,-0.0183,0.021,0.0156,0.0408,-0.0626,0.01,-0.0127,-0.0292,0.107,0.156,-0.0031,-0.0108,0.0363,0.01,-0.028,0.0396,0.03
"NC1(C(=O)N[C@@H](CCO)c2ccc(Cl)cc2)CCN(c2ncnc3[nH]ccc23)CC1 [Capivasertib] + CC(C)n1c(=O)n(C)c2cnc3cc(F)c(-c4ccc(OCCCN5CCCCC5)nc4)cc3c21 [AZD1390] (first compound max 10 µM, 7x7, partner max 0.3 µM)",-0.0382,-0.013,-0.0018,-0.0078,-0.0438,-0.0486,-0.0455,-0.0327,-0.0447,-0.0352,-0.0189,-0.0063,-0.0439,-0.095,-0.037,-0.0524,-0.044,-0.0829,-0.0482,-0.0105
"NC1(C(=O)N[C@@H](CCO)c2ccc(Cl)cc2)CCN(c2ncnc3[nH]ccc23)CC1 [Capivasertib] + C[C@@H]1COCCN1C2=NC(=NC(=C2)C3(CC3)[S@](=N)(=O)C)C4=C5C=CNC5=NC=C4 [AZD6738] (first compound max 10 µM, 7x7, partner max 10 µM)",0.0103,-0.0878,-0.0246,-0.0884,-0.011,-0.042,-0.0558,-0.0396,-0.0335,-0.0004,-0.027,-0.0014,-0.0076,-0.0657,-0.0054,-0.0488,-0.032,-0.0357,-0.0403,0.0093
"COc1nnc2ccc(N3CCC(c4ccc(OCCN5CCN(C)C(=O)[C@H]5C)cc4)CC3)nn12 [AZD5153] + CC1(C)CCC(CN2CCN(c3ccc(C(=O)NS(=O)(=O)c4ccc(NCC5CCOCC5)c([N+](=O)[O-])c4)c(Oc4cnc5[nH]ccc5c4)c3)CC2)=C(c2ccc(Cl)cc2)C1 [Venetoclax] (first compound max 1 µM, 7x7, partner max 1 µM)",0.058,-0.105,-0.0393,-0.017,-0.117,-0.0745,-0.01,-0.065,-0.0517,-0.082,-0.0571,-0.0687,-0.0292,-0.0748,-0.008,-0.0455,-0.062,-0.052,-0.0739,-0.0115
